“Also recorded” adds a separate entry of the source. Read-outs that look alike come from different tables or passages of the source.
Assays:
Type in all cases: biochemical
CAMKIIα = biological target: T1, CAMKIIα (Homo sapiens, UniProt Q9UQM7); test: In vitro radiometric CAMK kinase assay; conditions: up to 10 µM
T1 construct: purchased SignalChem (Richmond, BC, Canada)
Protocol: (§1) The PKC kinase assay was carried out by co-incubating 1 µCi [γ-^32P]ATP, 20 µM ATP, 50 ng of purified PKCα or PKCδ and 5 µg of myelin basic protein 4–14, 0.25 mg/mL bovine serum albumin, 0.1 mg/mL phosphatidylcholine/phosphatidylserine (80/20%) (1 µM), 1 µM phorbol dibutyrate in 50 µL of kinase buffer containing 50 mM Tris-HCl, pH 7.5, 4 mM MgCl2 and 10 mM β-mercaptoethanol. For the CAMK assay, 50 ng of CAMKIIα and 2 µg syntide-2 substrate in 50 µL kinase buffer were incubated with 0.1 mM MgCl2, 1 µCi of [γ-^32P] ATP, 70 µM ATP. 0.5 mM CaCl2 and 30 ng/µL calmodulin were preincubated for 15 min on ice and then added in the kinase reaction. The reactions were incubated at 30°C for 10 min and 25 µL of the reaction was spotted on Whatman P81 filter paper. The filter paper was washed 3 times in 0.5% phosphoric acid, air dried and counted using Beckman LS6500 multipurpose scintillation counter.

Recombinant human PKD3 = biological target: T2, Recombinant human PKD3 (Homo sapiens, UniProt O94806); test: Radiometric PKD kinase assay, 10-point IC50
T2 sequence (O94806 1-890): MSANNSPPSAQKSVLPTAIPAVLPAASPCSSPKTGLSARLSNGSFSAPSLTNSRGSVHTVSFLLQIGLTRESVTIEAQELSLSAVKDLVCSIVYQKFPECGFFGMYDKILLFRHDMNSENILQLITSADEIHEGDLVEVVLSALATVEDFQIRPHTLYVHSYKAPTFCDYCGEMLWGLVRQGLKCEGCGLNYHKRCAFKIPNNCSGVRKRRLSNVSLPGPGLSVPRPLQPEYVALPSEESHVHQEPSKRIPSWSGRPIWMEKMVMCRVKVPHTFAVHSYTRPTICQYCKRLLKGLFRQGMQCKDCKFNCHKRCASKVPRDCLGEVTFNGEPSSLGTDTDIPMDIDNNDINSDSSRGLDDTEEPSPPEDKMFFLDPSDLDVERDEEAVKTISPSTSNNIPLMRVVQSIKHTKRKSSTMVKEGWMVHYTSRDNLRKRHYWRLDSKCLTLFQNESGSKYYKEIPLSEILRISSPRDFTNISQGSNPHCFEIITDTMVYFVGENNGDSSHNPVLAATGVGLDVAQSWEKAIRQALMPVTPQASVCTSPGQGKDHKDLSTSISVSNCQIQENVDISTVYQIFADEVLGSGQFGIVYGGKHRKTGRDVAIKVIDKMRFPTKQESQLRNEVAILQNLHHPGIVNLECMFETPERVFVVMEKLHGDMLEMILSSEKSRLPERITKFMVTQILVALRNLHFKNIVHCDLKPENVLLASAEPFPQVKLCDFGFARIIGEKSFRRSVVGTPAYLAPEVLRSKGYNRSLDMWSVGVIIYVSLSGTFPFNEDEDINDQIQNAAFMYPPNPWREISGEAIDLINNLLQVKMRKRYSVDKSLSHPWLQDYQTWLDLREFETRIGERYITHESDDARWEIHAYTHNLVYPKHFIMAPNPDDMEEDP
Protocol: Recombinant human PKD1, 2, or 3 proteins were incubated in a mixture containing a peptide substrate derived from a PKD substrate, HDAC-5, and 10 different concentrations of the two compounds.
The IC50 values were calculated as the mean ±SEM of at least three independent experiments with triplicate determinations at each concentration of drug in each experiment. The data were plotted as a function of drug concentration and a representative graph is shown.

PKD1 = biological target: T3, PKD1 (Homo sapiens, UniProt Q15139); test: In vitro radiometric PKD1 screening assay at 1 µM
T3 construct: GST; purchased Enzo Life sciences (Farmingdale, NY)
T3 sequence (Q15139 1-912): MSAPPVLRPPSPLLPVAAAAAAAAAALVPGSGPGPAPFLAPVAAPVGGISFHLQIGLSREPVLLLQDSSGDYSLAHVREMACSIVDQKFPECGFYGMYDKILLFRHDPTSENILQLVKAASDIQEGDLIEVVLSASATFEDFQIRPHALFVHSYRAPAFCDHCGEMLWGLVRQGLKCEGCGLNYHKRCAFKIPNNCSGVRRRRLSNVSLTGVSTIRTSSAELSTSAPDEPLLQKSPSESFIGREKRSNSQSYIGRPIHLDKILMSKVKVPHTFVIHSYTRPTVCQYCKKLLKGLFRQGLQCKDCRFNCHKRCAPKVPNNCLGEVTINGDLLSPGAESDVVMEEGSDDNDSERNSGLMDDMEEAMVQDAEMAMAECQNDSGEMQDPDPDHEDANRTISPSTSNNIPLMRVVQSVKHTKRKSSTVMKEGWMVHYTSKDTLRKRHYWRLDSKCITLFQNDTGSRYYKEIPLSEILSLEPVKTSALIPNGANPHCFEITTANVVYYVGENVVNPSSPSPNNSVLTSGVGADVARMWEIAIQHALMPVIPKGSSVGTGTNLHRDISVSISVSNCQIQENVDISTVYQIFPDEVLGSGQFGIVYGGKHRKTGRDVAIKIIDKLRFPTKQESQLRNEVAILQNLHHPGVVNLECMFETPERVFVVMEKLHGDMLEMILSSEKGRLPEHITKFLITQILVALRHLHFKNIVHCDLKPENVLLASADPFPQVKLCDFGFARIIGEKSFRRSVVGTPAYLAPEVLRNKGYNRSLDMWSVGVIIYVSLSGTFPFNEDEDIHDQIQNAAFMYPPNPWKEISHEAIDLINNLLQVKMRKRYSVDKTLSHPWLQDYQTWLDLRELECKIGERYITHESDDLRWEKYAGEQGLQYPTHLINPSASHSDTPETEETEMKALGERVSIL
Protocol: Phosphorylation of HDAC5 was detected in a kinase reaction having 1 µCi [γ-^32P] […] The reaction was incubated at 30°C for 10 minutes and 25 µL of the reaction was spotted on Whatman P81 filter paper. The filter paper was washed 3 times in 0.5% phosphoric acid, air dried and counted using Beckman LS6500 multipurpose scintillation counter. Percent PKD1 inhibition was graphed using GraphPad Prism software 5.0.

PKCα = biological target: T4, PKCα (Homo sapiens, UniProt P17252); test: In vitro radiometric PKC kinase assay
T4 construct: purchased SignalChem (Richmond, BC, Canada)
Protocol: as §1

PKCδ = biological target: T5, PKCδ (Homo sapiens, UniProt Q05655); test: In vitro radiometric PKC kinase assay
T5 construct: purchased SignalChem (Richmond, BC, Canada)
T5 sequence (Q05655 whole entry): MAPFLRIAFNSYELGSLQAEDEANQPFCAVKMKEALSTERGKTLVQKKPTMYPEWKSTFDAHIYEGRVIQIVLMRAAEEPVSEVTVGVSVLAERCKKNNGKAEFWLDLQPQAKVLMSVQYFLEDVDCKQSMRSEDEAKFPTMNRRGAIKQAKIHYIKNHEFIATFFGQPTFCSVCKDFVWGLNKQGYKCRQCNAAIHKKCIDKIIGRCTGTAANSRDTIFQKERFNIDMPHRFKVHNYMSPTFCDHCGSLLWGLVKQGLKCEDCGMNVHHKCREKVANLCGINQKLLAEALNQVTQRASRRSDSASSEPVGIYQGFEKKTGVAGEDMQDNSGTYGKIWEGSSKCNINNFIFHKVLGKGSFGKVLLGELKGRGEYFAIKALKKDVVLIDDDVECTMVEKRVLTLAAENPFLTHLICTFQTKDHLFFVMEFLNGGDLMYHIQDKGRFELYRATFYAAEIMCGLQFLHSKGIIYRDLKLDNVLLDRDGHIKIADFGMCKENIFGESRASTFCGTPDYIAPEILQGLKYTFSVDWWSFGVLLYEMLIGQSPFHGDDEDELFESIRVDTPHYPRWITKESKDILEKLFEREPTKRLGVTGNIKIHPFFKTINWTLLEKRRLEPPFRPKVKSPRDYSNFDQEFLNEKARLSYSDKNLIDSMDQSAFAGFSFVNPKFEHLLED
Protocol: as §1

| Structure (SMILES) | inhibition of CAMKIIα, in words (CAMKIIα) | IC50 (Recombinant human PKD3) | IC50 (Recombinant human PKD3; PKD3 IC50, value printed in the figure, representative graph) | inhibition at 1 µM (PKD1; read-out: % PKD1 Inhibition) | inhibition at 1 µM (PKD1; read-out: inhibition of PKD1 activity) | inhibition of PKCα, in words (PKCα; 0.1, 1 and 10 µM) | inhibition of PKCδ, in words (PKCδ; 0.1, 1 and 10 µM) | IC50 (Recombinant human PKD3; mean ± SEM, read-out: IC50 PKD3) | IC50 (Recombinant human PKD3; value in the figure, representative graph, read-out: PKD3 IC50) | % PKD1 Inhibition (PKD1; 1 µM, targeted kinase inhibitor library screen, relative to DMSO) | inhibition of PKCα (PKCα; 10 µM) | inhibition of PKCδ (PKCδ; 10 µM) |
| --- | --- | --- | --- | --- | --- | --- | --- | --- | --- | --- | --- | --- |
| CC(C)(C)n1nc(-c2cccc3ccccc23)c2c(N)ncnc21 [Compound 1-NA-PP1, 1-(t-Butyl)-3-(naphthalen-1-yl)-1H-pyrazolo[3,4-d]pyrimidin-4-amine] | little activity; also recorded: did not significantly inhibit | 109 nM | 104 nM | 77% | 80% | No significant inhibitory activities; also recorded: did not significantly inhibit | No significant inhibitory activities; also recorded: did not significantly inhibit |  |  |  |  |  |
| O=C(c1ccc(Nc2nccc(-c3cc4ccccc4s3)n2)cc1)N1CCC(N2CCCC2)CC1 [IKK-16, reference compound] | almost completely abrogated its activity |  |  |  |  |  |  | 99.7 nM | 97 nM | 67% | > 50% | > 50% |
